Measurements published in ChEMBL document CHEMBL1201861, “Genomics of Drug Sensitity in Cancer screening data, Wellcome Trust Sanger Institute”.

What was measured:
Assay in all cases: cells
TGW = type: functional, cell-based; conditions: Homo sapiens
Description: SANGER: Inhibition of human TGW cell growth in a cell viability assay.

KS-1 = type: functional, cell-based, Homo sapiens; conditions: Homo sapiens, KS-1
Description: SANGER: Inhibition of human KS-1 cell growth in a cell viability assay.

NMC-G1 = type: functional, cell-based, Homo sapiens; conditions: Homo sapiens, NMC-G1
Description: SANGER: Inhibition of human NMC-G1 cell growth in a cell viability assay.

SW872 = type: functional, cell-based, Homo sapiens; conditions: Homo sapiens, SW872
Description: SANGER: Inhibition of human SW872 cell growth in a cell viability assay.

P30-OHK = type: functional, cell-based; conditions: Homo sapiens
Description: SANGER: Inhibition of human P30-OHK cell growth in a cell viability assay.

EW-18 = type: functional, cell-based; conditions: Homo sapiens
Description: SANGER: Inhibition of human EW-18 cell growth in a cell viability assay.

A3-KAW = type: functional, cell-based; conditions: Homo sapiens
Description: SANGER: Inhibition of human A3-KAW cell growth in a cell viability assay.

SF-126 = type: functional, cell-based, Homo sapiens; conditions: Homo sapiens, SF-126
Description: SANGER: Inhibition of human SF126 cell growth in a cell viability assay.

C8166 = type: functional, cell-based; conditions: Homo sapiens
Description: SANGER: Inhibition of human C8166 cell growth in a cell viability assay.

NCI-H1355 = type: functional, cell-based, Homo sapiens; conditions: Homo sapiens, NCI-H1355
Description: SANGER: Inhibition of human NCI-H1355 cell growth in a cell viability assay.

COLO-668 = type: functional, cell-based, Homo sapiens; conditions: Homo sapiens, COLO-668
Description: SANGER: Inhibition of human COLO-668 cell growth in a cell viability assay.

KARPAS-45 = type: functional, cell-based; conditions: Homo sapiens
Description: SANGER: Inhibition of human KARPAS-45 cell growth in a cell viability assay.

C2BBe1 = type: functional, cell-based, Homo sapiens; conditions: Homo sapiens, C2BBe1
Description: SANGER: Inhibition of human C2BBe1 cell growth in a cell viability assay.

EW-3 = type: functional, cell-based; conditions: Homo sapiens
Description: SANGER: Inhibition of human EW-3 cell growth in a cell viability assay.

RPMI-8866 = type: functional, cell-based; conditions: Homo sapiens
Description: SANGER: Inhibition of human RPMI-8866 cell growth in a cell viability assay.

RKO = type: functional, cell-based, Homo sapiens; conditions: Homo sapiens, RKO
KU812 cell line = type: functional, cell-based; conditions: Homo sapiens
Description: SANGER: Inhibition of human KU812 cell growth in a cell viability assay.

D-502MG = type: functional, cell-based, Homo sapiens; conditions: Homo sapiens, D-502MG
Description: SANGER: Inhibition of human D-502MG cell growth in a cell viability assay.

MOLT-16 = type: functional, cell-based; conditions: Homo sapiens
Description: SANGER: Inhibition of human MOLT-16 cell growth in a cell viability assay.

NCI-H82 = type: functional, cell-based; conditions: Homo sapiens
Description: SANGER: Inhibition of human NCI-H82 cell growth in a cell viability assay.

OCUB-M = type: functional, cell-based, Homo sapiens; conditions: Homo sapiens, OCUB-M
Description: SANGER: Inhibition of human OCUB-M cell growth in a cell viability assay.

A388 = type: functional, cell-based, Homo sapiens; conditions: Homo sapiens, A388
Description: SANGER: Inhibition of human A388 cell growth in a cell viability assay.

KE-37 = type: functional, cell-based; conditions: Homo sapiens
NCI-H69 = type: functional, cell-based; conditions: Homo sapiens
Description: SANGER: Inhibition of human NCI-H69 cell growth in a cell viability assay.

OVCAR-4 = type: functional, cell-based, Homo sapiens; conditions: Homo sapiens, OVCAR-4
Description: SANGER: Inhibition of human OVCAR-4 cell growth in a cell viability assay.

HCE-4 = type: functional, cell-based, Homo sapiens; conditions: Homo sapiens, HCE-4
Description: SANGER: Inhibition of human HCE-4 cell growth in a cell viability assay.

KLE = type: functional, cell-based, Homo sapiens; conditions: Homo sapiens, KLE
Description: SANGER: Inhibition of human KLE cell growth in a cell viability assay.

## C=C1C(=O)O[C@@H]2C3O[C@]3(C)CC/C=C(\C)CC[C@@H]12 (some centres not stated)
TGW
  IC50: > 5 µM
KS-1
  IC50: > 5 µM
NMC-G1
  IC50: > 5 µM
SW872
  IC50: > 5 µM
P30-OHK
  IC50: > 5 µM
EW-18
  IC50: > 5 µM
A3-KAW
  IC50: 2290 nM
SF-126
  IC50: > 5 µM
C8166
  IC50: > 5 µM
NCI-H1355
  IC50: > 5 µM
COLO-668
  IC50: > 5 µM
KARPAS-45
  IC50: > 5 µM
C2BBe1
  IC50: > 5 µM
EW-3
  IC50: > 5 µM
RPMI-8866
  IC50: > 5 µM
RKO
  IC50: > 5 µM
KU812 cell line
  IC50: > 5 µM
D-502MG
  IC50: > 5 µM
MOLT-16
  IC50: > 5 µM
NCI-H82
  IC50: > 5 µM
OCUB-M
  IC50: > 5 µM
A388
  IC50: > 5000 nM
KE-37
  IC50: > 5 µM
NCI-H69
  IC50: > 5 µM
OVCAR-4
  IC50: > 5 µM

## CC1=C2C[C@H]3[C@@H](CC=C4C[C@@H](O)CC[C@@]43C)[C@@H]2CC[C@]12O[C@@H]1C[C@H](C)CN[C@H]1[C@H]2C [CYCLOPAMINE]
TGW
  IC50: > 16 µM
KS-1
  IC50: > 16 µM
NMC-G1
  IC50: > 16 µM
SW872
  IC50: > 16 µM
P30-OHK
  IC50: > 16 µM
EW-18
  IC50: > 16 µM
A3-KAW
  IC50: > 16000 nM
SF-126
  IC50: > 16 µM
C8166
  IC50: > 16 µM
NCI-H1355
  IC50: > 16 µM
COLO-668
  IC50: > 16 µM
KARPAS-45
  IC50: > 16 µM
C2BBe1
  IC50: > 16 µM
EW-3
  IC50: > 16 µM
RPMI-8866
  IC50: > 16 µM
RKO
  IC50: > 16 µM
KU812 cell line
  IC50: > 16 µM
D-502MG
  IC50: > 16 µM
MOLT-16
  IC50: > 16 µM
NCI-H82
  IC50: > 16 µM
OCUB-M
  IC50: > 16 µM
A388
  IC50: > 16000 nM
KE-37
  IC50: > 16 µM
NCI-H69
  IC50: > 16 µM
OVCAR-4
  IC50: > 16 µM

## CS(=O)(=O)CCNCc1ccc(-c2ccc3ncnc(Nc4ccc(OCc5cccc(F)c5)c(Cl)c4)c3c2)o1 [LAPATINIB]
TGW
  IC50: > 2 µM
KS-1
  IC50: > 2 µM
NMC-G1
  IC50: > 2 µM
SW872
  IC50: > 2 µM
P30-OHK
  IC50: > 2 µM
EW-18
  IC50: > 2 µM
A3-KAW
  IC50: > 2000 nM
SF-126
  IC50: > 2 µM
C8166
  IC50: > 2 µM
NCI-H1355
  IC50: > 2 µM
COLO-668
  IC50: > 2 µM
KARPAS-45
  IC50: > 2 µM
C2BBe1
  IC50: > 2 µM
EW-3
  IC50: > 2 µM
RPMI-8866
  IC50: > 2 µM
RKO
  IC50: > 2 µM
KU812 cell line
  IC50: > 2 µM
D-502MG
  IC50: > 2 µM
MOLT-16
  IC50: > 2 µM
NCI-H82
  IC50: > 2 µM
OCUB-M
  IC50: 0.0574 µM
A388
  IC50: 723 nM
KE-37
  IC50: > 2 µM
NCI-H69
  IC50: > 2 µM
OVCAR-4
  IC50: > 2 µM

## CCc1nc(N)nc(N)c1-c1ccc(Cl)cc1 [PYRIMETHAMINE]
TGW
  IC50: > 20 µM
KS-1
  IC50: > 20 µM
NMC-G1
  IC50: > 20 µM
SW872
  IC50: > 20 µM
P30-OHK
  IC50: > 20 µM
EW-18
  IC50: > 20 µM
A3-KAW
  IC50: 9440 nM
SF-126
  IC50: > 20 µM
C8166
  IC50: > 20 µM
NCI-H1355
  IC50: > 20 µM
COLO-668
  IC50: > 20 µM
KARPAS-45
  IC50: > 20 µM
C2BBe1
  IC50: > 20 µM
EW-3
  IC50: > 20 µM
RPMI-8866
  IC50: 9.7 µM
RKO
  IC50: > 20 µM
KU812 cell line
  IC50: 15.6 µM
D-502MG
  IC50: > 20 µM
MOLT-16
  IC50: 15.1 µM
NCI-H82
  IC50: 9.11 µM
OCUB-M
  IC50: > 20 µM
A388
  IC50: > 20000 nM
KE-37
  IC50: 10.2 µM
NCI-H69
  IC50: > 20 µM
OVCAR-4
  IC50: 4.15 µM

## O=C(/C=C/c1ccccc1)NC(NC(=S)Nc1cccc2cccnc12)C(Cl)(Cl)Cl (configuration not stated) [SALUBRINAL]
TGW
  IC50: > 16 µM
KS-1
  IC50: > 16 µM
NMC-G1
  IC50: > 16 µM
SW872
  IC50: > 16 µM
P30-OHK
  IC50: > 16 µM
EW-18
  IC50: > 16 µM
A3-KAW
  IC50: 8430 nM
SF-126
  IC50: > 16 µM
C8166
  IC50: > 16 µM
NCI-H1355
  IC50: > 16 µM
COLO-668
  IC50: > 16 µM
KARPAS-45
  IC50: > 16 µM
C2BBe1
  IC50: > 16 µM
EW-3
  IC50: > 16 µM
RPMI-8866
  IC50: > 16 µM
RKO
  IC50: > 16 µM
KU812 cell line
  IC50: > 16 µM
D-502MG
  IC50: > 16 µM
MOLT-16
  IC50: 14 µM
NCI-H82
  IC50: > 16 µM
OCUB-M
  IC50: > 16 µM
A388
  IC50: > 16000 nM
KE-37
  IC50: 15.3 µM
NCI-H69
  IC50: > 16 µM
OVCAR-4
  IC50: 14.8 µM

## CN1CCN(CCOc2cc(OC3CCOCC3)c3c(Nc4c(Cl)ccc5c4OCO5)ncnc3c2)CC1 [SARACATINIB]
TGW
  IC50: > 2 µM
KS-1
  IC50: 1.2 µM
NMC-G1
  IC50: > 2 µM
SW872
  IC50: > 2 µM
P30-OHK
  IC50: > 2 µM
EW-18
  IC50: > 2 µM
A3-KAW
  IC50: > 2000 nM
SF-126
  IC50: > 2 µM
C8166
  IC50: > 2 µM
NCI-H1355
  IC50: > 2 µM
COLO-668
  IC50: > 2 µM
HCE-4
  IC50: > 2000 nM
KARPAS-45
  IC50: > 2 µM
C2BBe1
  IC50: 1.21 µM
EW-3
  IC50: > 2 µM
RPMI-8866
  IC50: > 2 µM
RKO
  IC50: > 2 µM
KLE
  IC50: > 2000 nM
KU812 cell line
  IC50: > 2 µM
D-502MG
  IC50: > 2 µM
MOLT-16
  IC50: > 2 µM
NCI-H82
  IC50: > 2 µM
OCUB-M
  IC50: > 2 µM
A388
  IC50: > 2000 nM
KE-37
  IC50: > 2 µM
NCI-H69
  IC50: > 2 µM
OVCAR-4
  IC50: > 2 µM

## CNC(=O)c1cc(Oc2ccc(NC(=O)Nc3ccc(Cl)c(C(F)(F)F)c3)cc2)ccn1 [SORAFENIB]
TGW
  IC50: > 4 µM
KS-1
  IC50: 3.88 µM
NMC-G1
  IC50: > 4 µM
SW872
  IC50: > 4 µM
P30-OHK
  IC50: > 4 µM
EW-18
  IC50: > 4 µM
A3-KAW
  IC50: 1880 nM
SF-126
  IC50: 1.64 µM
C8166
  IC50: > 4 µM
NCI-H1355
  IC50: > 4 µM
COLO-668
  IC50: > 4 µM
KARPAS-45
  IC50: > 4 µM
C2BBe1
  IC50: > 4 µM
EW-3
  IC50: > 4 µM
RPMI-8866
  IC50: > 4 µM
RKO
  IC50: > 4 µM
KU812 cell line
  IC50: > 4 µM
D-502MG
  IC50: > 4 µM
MOLT-16
  IC50: > 4 µM
NCI-H82
  IC50: > 4 µM
OCUB-M
  IC50: > 4 µM
A388
  IC50: 1590 nM
KE-37
  IC50: > 4 µM
NCI-H69
  IC50: > 4 µM
OVCAR-4
  IC50: 2.21 µM
